pEC50: −log10 of the molar value. Read-outs that look alike come from different tables or passages of the source.
Key:
[1] = tested on: HCV genotype 1b (Con1) replicon in HUH-7 cells; assay: HCV replicon luciferase reporter assay, genotype 1b; assay type: cell-based; conditions: HCV genotype 1b replicon luciferase, 3 days incubation
Outline: (§1)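 Replicon inhibition for both genotypes was measured as Renilla luciferase signal (EnduRen, 7.5 μM final, 2 h) after 3-day, 37° C exposure of replicon-bearing HUH-7 cells in 4% FCS DMEM, 0.5% DMSO. The 1b construct carries S1179I; the 1a H77 construct carries P1496L and S2204I. Twenty-point, 3-fold dilutions were fitted four-parametrically for EC50, and CC50 was taken from multiplexed Cell Titer-Blue.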

[2] = tested on: HCV genotype 1a (H77 strain) replicon in HUH-7 cells; assay: HCV replicon luciferase reporter assay, genotype 1a; assay type: cell-based; conditions: HCV genotype 1a replicon luciferase, 3 days incubation
Outline: as §1

[3] = Hepatitis C virus, Huh-7, 72 h, read-out: LE_1b (EC50, range)
[4] = Hepatitis C virus, Huh-7, 72 h, read-out: LE_1a (EC50, range)

Work on CCOc1ccc2c(O[C@@H]3C[C@H]4C(=O)N[C@]5(C(=O)NS(=O)(=O)C6(C)CC6)C[C@H]5/C=C\CC[C@@H](C)C[C@@H](CC)[C@H](NC(=O)OC(C)(C)C(F)(F)F)C(=O)N4C3)nccc2c1 [Compound 5369, 1,1,1-trifluoro-2-methylpropan-2-yl((2R,6S,7R,9R,13aS,14aR,16aS,Z)-2-((6-ethoxyisoquinolin-1-yl)oxy)-7-ethyl-9-methyl-14a-(((1-methylcyclopropyl)sulfonyl)carbamoyl)-5,16-dioxo-1,2,3,5,6,7,8,9,10,11,13a,14,14a,15,16,16a-hexadecahydrocyclopropa[e]pyrrolo[1,2-a][1,4]diazacyclopentadecin-6-yl)carbamate] yielded a pEC50 [1, 3] of 8.30 to 9.00 and a pEC50 [2, 4] of 8.30 to 9.00.
For CCOc1ccc2c(O[C@@H]3C[C@H]4C(=O)N[C@]5(C(=O)NS(=O)(=O)C6(C)CC6)C[C@H]5/C=C\CC[C@@H](C)C[C@@H](CC)[C@H](NC(=O)OC(C)(C)C(C)(F)F)C(=O)N4C3)nccc2c1 [Compound 5371, 3,3-difluoro-2-methylbutan-2-yl((2R,6S,7R,9R,13aS,14aR,16aS,Z)-2-((6-ethoxyisoquinolin-1-yl)oxy)-7-ethyl-9-methyl-14a-(((1-methylcyclopropyl)sulfonyl)carbamoyl)-5,16-dioxo-1,2,3,5,6,7,8,9,10,11,13a,14,14a,15,16,16a-hexadecahydrocyclopropa[e]pyrrolo[1,2-a][1,4]diazacyclopentadecin-6-yl)carbamate], the pEC50 [1, 3] was 9.00 to 9.29 and the pEC50 [2, 4] was 8.30 to 9.00.
In the case of CCOc1ccc2c(O[C@@H]3C[C@H]4C(=O)N[C@]5(C(=O)NS(=O)(=O)C6(C)CC6)C[C@H]5/C=C\CC[C@@H](C)C[C@@H](CC)[C@H](NC(=O)OC(C)(C)C)C(=O)N4C3)nccc2c1 [Compound 5373, tert-butyl ((2R,6S,7R,9R,13aS,14aR,16aS,Z)-2-((6-ethoxyisoquinolin-1-yl)oxy)-7-ethyl-9-methyl-14a-(((1-methylcyclopropyl)sulfonyl)carbamoyl)-5,16-dioxo-1,2,3,5,6,7,8,9,10,11,13a,14,14a,15,16,16a-hexadecahydrocyclopropa[e]pyrrolo[1,2-a][1,4]diazacyclopentadecin-6-yl)carbamate], the pEC50 [1, 3] was 9.00 to 9.29 and the pEC50 [2, 4] was 8.30 to 9.00.
Compound COc1cc2ccnc(O[C@@H]3C[C@H]4C(=O)N[C@]5(C(=O)NS(=O)(=O)C6(C)CC6)C[C@H]5/C=C\CC[C@@H](C)C[C@@H](C)[C@H](NC(=O)OC(C)(C)C(F)(F)F)C(=O)N4C3)c2cc1OC [Compound 5375, 1,1,1-trifluoro-2-methylpropan-2-yl((2R,6S,7R,9R,13aS,14aR,16aS,Z)-2-((6,7-dimethoxyisoquinolin-1-yl)oxy)-7,9-dimethyl-14a-(((1-methylcyclopropyl)sulfonyl)carbamoyl)-5,16-dioxo-1,2,3,5,6,7,8,9,10,11,13a,14,14a,15,16,16a-hexadecahydrocyclopropa[e]pyrrolo[1,2-a][1,4]diazacyclopentadecin-6-yl)carbamate] has a pEC50 [1, 3] of 9.00 to 9.29 and a pEC50 [2, 4] of 8.30 to 9.00.
Compound COc1cc2ccnc(O[C@@H]3C[C@H]4C(=O)N[C@]5(C(=O)NS(=O)(=O)C6(C)CC6)C[C@H]5/C=C\CC[C@@H](C)C[C@@H](C)[C@H](NC(=O)OC(C)(C)C(C)(F)F)C(=O)N4C3)c2cc1OC [Compound 5377, 3,3-difluoro-2-methylbutan-2-yl((2R,6S,7R,9R,13aS,14aR,16aS,Z)-2-((6,7-dimethoxyisoquinolin-1-yl)oxy)-7,9-dimethyl-14a-(((1-methylcyclopropyl)sulfonyl)carbamoyl)-5,16-dioxo-1,2,3,5,6,7,8,9,10,11,13a,14,14a,15,16,16a-hexadecahydrocyclopropa[e]pyrrolo[1,2-a][1,4]diazacyclopentadecin-6-yl)carbamate] has a pEC50 [1, 3] of 8.30 to 9.00 and a pEC50 [2, 4] of 8.30 to 9.00.
In the case of COc1cc2ccnc(O[C@@H]3C[C@H]4C(=O)N[C@]5(C(=O)NS(=O)(=O)C6(C)CC6)C[C@H]5/C=C\CC[C@@H](C)C[C@@H](C)[C@H](NC(=O)OC(C)(C)C)C(=O)N4C3)c2cc1OC [Compound 5379, tert-butyl ((2R,6S,7R,9R,13aS,14aR,16aS,Z)-2-((6,7-dimethoxyisoquinolin-1-yl)oxy)-7,9-dimethyl-14a-(((1-methylcyclopropyl)sulfonyl)carbamoyl)-5,16-dioxo-1,2,3,5,6,7,8,9,10,11,13a,14,14a,15,16,16a-hexadecahydrocyclopropa[e]pyrrolo[1,2-a][1,4]diazacyclopentadecin-6-yl)carbamate], the pEC50 [1, 3] was 8.30 to 9.00 and the pEC50 [2, 4] was 8.30 to 9.00.
In the case of COc1cc2ccnc(O[C@@H]3C[C@H]4C(=O)N[C@]5(C(=O)NS(=O)(=O)C6(CF)CC6)C[C@H]5/C=C\CC[C@@H](C)C[C@@H](C)[C@H](NC(=O)OC(C)(C)C(F)(F)F)C(=O)N4C3)c2cc1OC [Compound 5381, 1,1,1-trifluoro-2-methylpropan-2-yl((2R,6S,7R,9R,13aS,14aR,16aS,Z)-2-((6,7-dimethoxyisoquinolin-1-yl)oxy)-14a-(((1-(fluoromethyl)cyclopropyl)sulfonyl)carbamoyl)-7,9-dimethyl-5,16-dioxo-1,2,3,5,6,7,8,9,10,11,13a,14,14a,15,16,16a-hexadecahydrocyclopropa[e]pyrrolo[1,2-a][1,4]diazacyclopentadecin-6-yl)carbamate], the pEC50 [1, 3] was 8.30 to 9.00 and the pEC50 [2, 4] was 8.30 to 9.00.
For COc1cc2ccnc(O[C@@H]3C[C@H]4C(=O)N[C@]5(C(=O)NS(=O)(=O)C6(CF)CC6)C[C@H]5/C=C\CC[C@@H](C)C[C@@H](C)[C@H](NC(=O)OC(C)(C)C(F)(F)F)C(=O)N4C3)c2cc1OC [Compound 5383, 1,1,1-trifluoro-2-methylpropan-2-yl((2R,6S,7R,9R,13aS,14aR,16aS,Z)-2-((6,7-dimethoxyisoquinolin-1-yl)oxy)-14a-(((1-(fluoromethyl)cyclopropyl)sulfonyl)carbamoyl)-7,9-dimethyl-5,16-dioxo-1,2,3,5,6,7,8,9,10,11,13a,14,14a,15,16,16a-hexadecahydrocyclopropa[e]pyrrolo[1,2-a][1,4]diazacyclopentadecin-6-yl)carbamate], the pEC50 ([1]; read-out: LE_1b (EC50, range)) was 8.30 to 9.00 and the pEC50 ([2]; read-out: LE_1a (EC50, range)) was 7.46 to 8.30.
With COc1cc2ccnc(O[C@@H]3C[C@H]4C(=O)N[C@]5(C(=O)NS(=O)(=O)C6(CF)CC6)C[C@H]5/C=C\CC[C@@H](C)C[C@@H](C)[C@H](NC(=O)OC(C)(C)C)C(=O)N4C3)c2cc1OC [Compound 5385, tert-butyl ((2R,6S,7R,9R,13aS,14aR,16aS,Z)-2-((6,7-dimethoxyisoquinolin-1-yl)oxy)-14a-(((1-(fluoromethyl)cyclopropyl)sulfonyl)carbamoyl)-7,9-dimethyl-5,16-dioxo-1,2,3,5,6,7,8,9,10,11,13a,14,14a,15,16,16a-hexadecahydrocyclopropa[e]pyrrolo[1,2-a][1,4]diazacyclopentadecin-6-yl)carbamate] the pEC50 [1, 3] was 8.30 to 9.00 and the pEC50 [2, 4] was 7.46 to 8.30.
COc1cc2ccnc(O[C@@H]3C[C@H]4C(=O)N[C@]5(C(=O)NS(=O)(=O)C6CC6)C[C@H]5/C=C\CC[C@@H](C)C[C@@H](C)[C@H](NC(=O)OC(C)(C)C(F)(F)F)C(=O)N4C3)c2cc1OC [Compound 5387, 1,1,1-trifluoro-2-methylpropan-2-yl((2R,6S,7R,9R,13aS,14aR,16aS,Z)-14a-((cyclopropylsulfonyl)carbamoyl)-2-((6,7-dimethoxyisoquinolin-1-yl)oxy)-7,9-dimethyl-5,16-dioxo-1,2,3,5,6,7,8,9,10,11,13a,14,14a,15,16,16a-hexadecahydrocyclopropa[e]pyrrolo[1,2-a][1,4]diazacyclopentadecin-6-yl)carbamate] was tested, and the pEC50 [1, 3] was 8.30 to 9.00 and the pEC50 [2, 4] was 8.30 to 9.00.
COc1cc2ccnc(O[C@@H]3C[C@H]4C(=O)N[C@]5(C(=O)NS(=O)(=O)C6CC6)C[C@H]5/C=C\CC[C@@H](C)C[C@@H](C)[C@H](NC(=O)OC(C)(C)C(C)(F)F)C(=O)N4C3)c2cc1OC [Compound 5389, 3,3-difluoro-2-methylbutan-2-yl((2R,6S,7R,9R,13aS,14aR,16aS,Z)-14a-((cyclopropylsulfonyl)carbamoyl)-2-((6,7-dimethoxyisoquinolin-1-yl)oxy)-7,9-dimethyl-5,16-dioxo-1,2,3,5,6,7,8,9,10,11,13a,14,14a,15,16,16a-hexadecahydrocyclopropa[e]pyrrolo[1,2-a][1,4]diazacyclopentadecin-6-yl)carbamate] was tested, and the pEC50 [1, 3] was 8.30 to 9.00 and the pEC50 [2, 4] was 8.30 to 9.00.
COc1cc2ccnc(O[C@@H]3C[C@H]4C(=O)N[C@]5(C(=O)NS(=O)(=O)C6CC6)C[C@H]5/C=C\CC[C@@H](C)C[C@@H](C)[C@H](NC(=O)OC(C)(C)C)C(=O)N4C3)c2cc1OC [Compound 5391, tert-butyl ((2R,6S,7R,9R,13aS,14aR,16aS,Z)-14a-((cyclopropylsulfonyl)carbamoyl)-2-((6,7-dimethoxyisoquinolin-1-yl)oxy)-7,9-dimethyl-5,16-dioxo-1,2,3,5,6,7,8,9,10,11,13a,14,14a,15,16,16a-hexadecahydrocyclopropa[e]pyrrolo[1,2-a][1,4]diazacyclopentadecin-6-yl)carbamate] showed a pEC50 [1, 3] of 8.30 to 9.00 and a pEC50 [2, 4] of 8.30 to 9.00.
In the case of CCOc1cc2ccnc(O[C@@H]3C[C@H]4C(=O)N[C@]5(C(=O)NS(=O)(=O)C6(C)CC6)C[C@H]5/C=C\CC[C@@H](C)C[C@@H](C)[C@H](NC(=O)OC(C)(C)C)C(=O)N4C3)c2cc1F [Compound 5393, tert-butyl ((2R,6S,7R,9R,13aS,14aR,16aS,Z)-2-((6-ethoxy-7-fluoroisoquinolin-1-yl)oxy)-7,9-dimethyl-14a-(((1-methylcyclopropyl)sulfonyl)carbamoyl)-5,16-dioxo-1,2,3,5,6,7,8,9,10,11,13a,14,14a,15,16,16a-hexadecahydrocyclopropa[e]pyrrolo[1,2-a][1,4]diazacyclopentadecin-6-yl)carbamate], the pEC50 ([1]; Hepatitis C virus, Huh-7, 72 h, read-out: LE_1b (EC50)) was 9.26, the pEC50 [1, 3] was 9.00 to 9.29 and the pEC50 ([2]; Hepatitis C virus, Huh-7, 72 h, read-out: LE_1a (EC50)) was 9.04. It also gave a pEC50 [2, 4] of 9.00 to 9.29.
